Measurements as given in PubChem BioAssay AID1259407 (Chemical Carcinogenesis Research Information System (CCRIS), 2018).
Active and inactive are the calls of the source. The rule behind the calls is not given here.

System: CCRIS mutagenicity, Ames/micronucleus/aberration tests
Test: CCRIS mutagenicity studies
[1] = Test System: AMES SALMONELLA TYPHIMURIUM, Strain/Indicator: TA98, Metabolic Activation: NONE, Method: STANDARD PLATE
[2] = Test System: AMES SALMONELLA TYPHIMURIUM, Strain/Indicator: TA100, Metabolic Activation: NONE, Method: STANDARD PLATE
[3] = Test System: AMES SALMONELLA TYPHIMURIUM, Strain/Indicator: TA98, Metabolic Activation: HAMSTER, LIVER, S-9, AROCLOR 1254 (10%), Method: PREINCUBATION
[4] = Test System: AMES SALMONELLA TYPHIMURIUM, Strain/Indicator: TA98, Metabolic Activation: NONE, Method: PREINCUBATION
[5] = Test System: AMES SALMONELLA TYPHIMURIUM, Strain/Indicator: TA98, Metabolic Activation: RAT, LIVER, S-9, AROCLOR 1254 (10%), Method: PREINCUBATION
[6] = Test System: AMES SALMONELLA TYPHIMURIUM, Strain/Indicator: TA100, Metabolic Activation: HAMSTER, LIVER, S-9, AROCLOR 1254 (10%), Method: PREINCUBATION
[7] = Test System: AMES SALMONELLA TYPHIMURIUM, Strain/Indicator: TA100, Metabolic Activation: NONE, Method: PREINCUBATION
[8] = Test System: AMES SALMONELLA TYPHIMURIUM, Strain/Indicator: TA100, Metabolic Activation: RAT, LIVER, S-9, AROCLOR 1254 (10%), Method: PREINCUBATION
[9] = Test System: AMES SALMONELLA TYPHIMURIUM, Strain/Indicator: TA1535, Metabolic Activation: HAMSTER, LIVER, S-9, AROCLOR 1254 (10%), Method: PREINCUBATION
[10] = Test System: AMES SALMONELLA TYPHIMURIUM, Strain/Indicator: TA1535, Metabolic Activation: NONE, Method: PREINCUBATION
[11] = Test System: AMES SALMONELLA TYPHIMURIUM, Strain/Indicator: TA1535, Metabolic Activation: RAT, LIVER, S-9, AROCLOR 1254 (10%), Method: PREINCUBATION
[12] = Test System: AMES SALMONELLA TYPHIMURIUM, Strain/Indicator: TA1535, Metabolic Activation: NONE, Method: STANDARD PLATE
[13] = Test System: AMES SALMONELLA TYPHIMURIUM, Strain/Indicator: TA1537, Metabolic Activation: NONE, Method: STANDARD PLATE
[14] = Test System: E. COLI, Strain/Indicator: WP2 UVRA, Metabolic Activation: NONE, Method: STANDARD PLATE
[15] = Test System: AMES SALMONELLA TYPHIMURIUM, Strain/Indicator: TA100, Metabolic Activation: S-9, Method: STANDARD PLATE
[16] = Test System: AMES SALMONELLA TYPHIMURIUM, Strain/Indicator: TA98, Metabolic Activation: S-9, Method: STANDARD PLATE

In the case of `CC(C)=CCc1ccc(O)c2c(=O)c3c(O)c4c(cc3oc12)O[C@H]1OC=C[C@@]41O`, the mutagenic call [1] is reported as “active; positive”, the mutagenic call (Test System: AMES SALMONELLA TYPHIMURIUM, Strain/Indicator: TA98, Metabolic Activation: RAT, LIVER, S-9, AROCLOR 1254, Method: STANDARD PLATE) is reported as “active; positive” and the mutagenic call [2] is reported as “active; positive”. The mutagenic call (Test System: AMES SALMONELLA TYPHIMURIUM, Strain/Indicator: TA100, Metabolic Activation: RAT, LIVER, S-9, AROCLOR 1254, Method: STANDARD PLATE) was “active; positive”.

With `CC/C=C1\OC(=O)c2ccccc21` the mutagenic call (Test System: AMES SALMONELLA TYPHIMURIUM, Strain/Indicator: TA97, Metabolic Activation: HAMSTER, LIVER, S-9, AROCLOR 1254 (10%), Method: PREINCUBATION) was “inactive; negative”, the mutagenic call (Test System: AMES SALMONELLA TYPHIMURIUM, Strain/Indicator: TA97, Metabolic Activation: NONE, Method: PREINCUBATION) was “inactive; negative” and the mutagenic call (Test System: AMES SALMONELLA TYPHIMURIUM, Strain/Indicator: TA97, Metabolic Activation: RAT, LIVER, S-9, AROCLOR 1254 (10%), Method: PREINCUBATION) was “inactive; negative”. The mutagenic call [3] was “inactive; negative”, the mutagenic call [4] was “inactive; negative” and the mutagenic call [5] was “inactive; negative”. For the same molecule, the mutagenic call [6] was “inactive; negative”, the mutagenic call [7] was “inactive; negative” and the mutagenic call [8] was “active; positive”. The mutagenic call [9] was “inactive; negative”, the mutagenic call [10] was “inactive; negative” and the mutagenic call [11] was “inactive; negative”.

For `Oc1cccc2cc3c4ccccc4c4ccccc4c3cc12`, the mutagenic call (Test System: AMES SALMONELLA TYPHIMURIUM, Strain/Indicator: TA100, Metabolic Activation: RAT, LIVER, S-9, AROCLOR 1254, Method: PREINCUBATION) was “active; positive”.

With `O=Nc1ccc2ccc3cccc4ccc1c2c34` the mutagenic call (Test System: AMES SALMONELLA TYPHIMURIUM, Strain/Indicator: TA98 (1,8-DNP6), Metabolic Activation: NONE, Method: STANDARD PLATE) was “active; positive”, the mutagenic call (Test System: AMES SALMONELLA TYPHIMURIUM, Strain/Indicator: TA98(1,8-DNP6), Metabolic Activation: NONE, Method: STANDARD PLATE) was “active; positive” and the mutagenic call (Test System: AMES SALMONELLA TYPHIMURIUM, Strain/Indicator: TA98 (NR), Metabolic Activation: NONE, Method: STANDARD PLATE) was “active; positive”. For the same molecule, the mutagenic call (Test System: AMES SALMONELLA TYPHIMURIUM, Strain/Indicator: TA98(NR), Metabolic Activation: NONE, Method: STANDARD PLATE) was “active; positive”, the mutagenic call [1] was “active; positive” and the mutagenic call (Test System: CHINESE HAMSTER OVARY, Strain/Indicator: CHO (HGPRT), Metabolic Activation: NONE, Method: SUSPENSION) was “active; positive”. The mutagenic call (Test System: CHINESE HAMSTER OVARY, Strain/Indicator: CHO-K1-BH4 (HGPRT), Metabolic Activation: NONE, Method: SUSPENSION) was “active; positive” and the mutagenic call (Test System: CHINESE HAMSTER OVARY, Strain/Indicator: CHO/HGPRT, Metabolic Activation: NONE) was “active; positive”.

With `O=C(O)C(=O)Nc1cccc(-c2nn[nH]n2)c1` the mutagenic call [1] was “inactive; negative”, the mutagenic call (Test System: AMES SALMONELLA TYPHIMURIUM, Strain/Indicator: TA98, Metabolic Activation: RAT, LIVER, S-9, PHENOBARBITAL AND 5,6-BENZOFLAVONE, Method: STANDARD PLATE) was “inactive; negative” and the mutagenic call [2] was “inactive; negative”. For the same molecule, the mutagenic call (Test System: AMES SALMONELLA TYPHIMURIUM, Strain/Indicator: TA100, Metabolic Activation: RAT, LIVER, S-9, PHENOBARBITAL AND 5,6-BENZOFLAVONE, Method: STANDARD PLATE) was “inactive; negative”, the mutagenic call [12] was “inactive; negative” and the mutagenic call (Test System: AMES SALMONELLA TYPHIMURIUM, Strain/Indicator: TA1535, Metabolic Activation: RAT, LIVER, S-9, PHENOBARBITAL AND 5,6-BENZOFLAVONE, Method: STANDARD PLATE) was “inactive; negative”. For the same molecule, the mutagenic call [13] was “inactive; negative”, the mutagenic call (Test System: AMES SALMONELLA TYPHIMURIUM, Strain/Indicator: TA1537, Metabolic Activation: RAT, LIVER, S-9, PHENOBARBITAL AND 5,6-BENZOFLAVONE, Method: STANDARD PLATE) was “inactive; negative” and the mutagenic call [14] was “inactive; negative”.

`CC(N)CN` (configuration not stated) was tested, and the mutagenic call [3] was “inactive; negative”, the mutagenic call [4] was “inactive; negative” and the mutagenic call [5] was “inactive; negative”. For the same molecule, the mutagenic call [6] was “inactive; negative”, the mutagenic call [7] was “inactive; negative” and the mutagenic call [8] was “inactive; negative”. For the same molecule, the mutagenic call [9] was “inactive; negative”, the mutagenic call [10] was “inactive; negative” and the mutagenic call [11] was “inactive; negative”. The mutagenic call (Test System: AMES SALMONELLA TYPHIMURIUM, Strain/Indicator: TA1537, Metabolic Activation: HAMSTER, LIVER, S-9, AROCLOR 1254 (10%), Method: PREINCUBATION) was “inactive; negative”, the mutagenic call (Test System: AMES SALMONELLA TYPHIMURIUM, Strain/Indicator: TA1537, Metabolic Activation: NONE, Method: PREINCUBATION) was “inactive; negative” and the mutagenic call (Test System: AMES SALMONELLA TYPHIMURIUM, Strain/Indicator: TA1537, Metabolic Activation: RAT, LIVER, S-9, AROCLOR 1254 (10%), Method: PREINCUBATION) was “inactive; negative”.

`O[C@@H]([C@H](O)[C@H](O)CBr)[C@H](O)CBr` was tested, and the mutagenic call [1] was “inactive; negative”, the mutagenic call [2] was “inactive; negative” and the mutagenic call [15] was “active; positive”. For the same molecule, the mutagenic call (Test System: E. COLI, Strain/Indicator: WP2 (HCR), Metabolic Activation: NONE, Method: STANDARD PLATE) was “inactive; negative” and the mutagenic call (Test System: E. COLI, Strain/Indicator: WP2 (HCR), Metabolic Activation: S-9, Method: STANDARD PLATE) was “active; positive”.

For `ONc1ccc(-c2ccccc2)cc1`, the mutagenic call (Test System: AMES SALMONELLA TYPHIMURIUM, Strain/Indicator: TA98(1,8-DNP6), Metabolic Activation: NONE, Method: PREINCUBATION) was “active; positive”, the mutagenic call [4] was “active; positive” and the mutagenic call [1] was “active; positive”. The mutagenic call [16] was “active; positive”, the mutagenic call [2] was “active; positive” and the mutagenic call [15] was “active; positive”. For the same molecule, the mutagenic call [12] was “inactive; negative”, the mutagenic call (Test System: AMES SALMONELLA TYPHIMURIUM, Strain/Indicator: YG1024, Metabolic Activation: NONE, Method: PREINCUBATION) was “active; positive” and the mutagenic call (Test System: E. COLI, Strain/Indicator: WP2, Metabolic Activation: NONE, Method: PREINCUBATION) was “active; positive”. The mutagenic call (Test System: E. COLI, Strain/Indicator: WP2 UVRA(P), Metabolic Activation: NONE, Method: STANDARD PLATE) was “active; positive”, the mutagenic call (Test System: E. COLI, Strain/Indicator: WP2 UVRA, Metabolic Activation: NONE, Method: FLUCTUATION TEST) was “active; positive” and the mutagenic call (Test System: E. COLI, Strain/Indicator: WP2 UVRA, Metabolic Activation: NONE, Method: PREINCUBATION) was “active; positive”. For the same molecule, the mutagenic call [14] was “active; positive”.

`CCCCCNc1snc2ccccc12` was tested, and the mutagenic call [1] was “inactive; negative”, the mutagenic call [16] was “inactive; negative” and the mutagenic call [2] was “inactive; negative”. The mutagenic call [15] was “inactive; negative”, the mutagenic call [12] was “inactive; negative” and the mutagenic call (Test System: AMES SALMONELLA TYPHIMURIUM, Strain/Indicator: TA1535, Metabolic Activation: S-9, Method: STANDARD PLATE) was “inactive; negative”. The mutagenic call [13] was “inactive; negative” and the mutagenic call (Test System: AMES SALMONELLA TYPHIMURIUM, Strain/Indicator: TA1537, Metabolic Activation: S-9, Method: STANDARD PLATE) was “inactive; negative”.
